The subject of assay [1] is Mucor racemosus KF223 (IFO 4581). Kind of assay: Paper disk antimicrobial activity. The following applies: 1 mg/ml 10 μl on 6 mm paper disk, 24 hours. The class given is cell-based. Further details: unit not given here.
For a further assay, the system named is Candida albicans KF1. Kind of assay: Paper disk antimicrobial activity. The class given is cell-based. Further details: unit not given here. The following applies: 1 mg/ml 10 μl on 6 mm paper disk, 24 hours.

The text below walks through data of patent publication US6486197B1, “Substance ft-0554 and process for producing the same” (The Kitasato Institute, priority 1997, dated 2002).

Consider `CCC(C)/C=C/C=C(\C)CC(C)/C=C/C=C/C1OC(=O)C(O)C2OC12C` (centres unmarked) [FT-0554 substance], for which the inhibition zone diameter is listed as 10 in assay [1] and 12 in the assay with Candida albicans KF1.
